Source: patent publication US20080076812A1 (priority 2006, published 2008)
Several values for one entry are separate records, joined by “and”; a condition that tells them apart may be missing. Equal entries are not always repeated.

Assay: Drug-excipient compatibility study
Details: binary drug/excipient mixture, 40° C./75% RH open bottle; sodium salt
Source text: This study was designed to evaluate the effects of various diluents, binders, disintegrants, lubricants, buffering agents, and antioxidants on the stability of the drug substance.

Structure (SMILES): Cc1cc2c(cc1CC(=O)c1sccc1S(=O)(=O)[N-]c1onc(C)c1Cl)OCO2.[Na+] [Sitaxsentan Sodium, N-(4-chloro-3-methyl-5-isoxazolyl)-2-[2-methyl-4,5-(methylenedioxy)phenylacetyl]-thiophene-3-sulfonamide, sodium salt]
- Assay (%) T = 2 Weeks: 98.0%
- Total Related Substanes (%) T = 2 Weeks: 0.19% and 0.18%
- Total Related Substanes (%) T = 4 Weeks: 0.24% and 0.12%
